Data: the supplement of paper PMC4862054

Assays:
Settings in all cases: incubation time: 72 h
MDA-MB-436 [1] = experiment: drug sensitivity score (DSS), CellTiter-Blue viability (DSS (AUC-based score)); higher = stronger viability inhibition; extreme values may be limits of the assay
Summary of the method: (§1)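 Compound was arrayed in 384-well plates as a 5- or 9-concentration series, and 20 µl of breast cancer cell suspension was seeded on top. After 72 h, each well received 2.5 µl CellTiter-Blue for 2 h at 37 °C before fluorescence reading at 560/590 nm. Per-plate normalisation used 0.1 % DMSO and a positive kill control, and the area under the fitted dose-response curve gave the drug sensitivity score.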

Hs578T [2] = experiment: as above
Summary of the method: as §1

HCC1937 [3] = experiment: as above
Summary of the method: as §1

CAL-148 = experiment: normalised viability (% of control), CellTiter-Blue; higher = more viable cells (about 100 = DMSO control)
Summary of the method: (§2)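 Plates were quality-checked by Z'-factor and normalised to vehicle (100) and a positive kill control (0). The underlying assay incubated breast cancer cell lines for 72 h on 384-well plates with compound, then added 2.5 µl CellTiter-Blue for 2 h at 37 °C and read at 560/590 nm. The value is normalised viability at a single listed concentration of the series.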

CAL-120 = experiment: as above
Summary of the method: as §2

MDA-MB-453 [4] = experiment: as above
Summary of the method: as §2

CAL-51 = experiment: as above
Summary of the method: as §2

BT-549 = experiment: as above
Summary of the method: as §2

MDA-MB-436 [5] = experiment: as above
Summary of the method: as §2

HDQ-P1 [6] = experiment: as above
Summary of the method: as §2

SK-BR-3 = experiment: as above
Summary of the method: as §2

BT-474 = experiment: as above
Summary of the method: as §2

MDA-MB-468 = experiment: as above
Summary of the method: as §2

HCC1599 = experiment: as above
Summary of the method: as §2

HCC1143 = experiment: as above
Summary of the method: as §2

MFM-223 = experiment: as above
Summary of the method: as §2

Hs578T [7] = experiment: as above
Summary of the method: as §2

HCC1937 [8] = experiment: as above
Summary of the method: as §2

DU-4475 = experiment: as above
Summary of the method: as §2

CAL-85-1 = experiment: as above
Summary of the method: as §2

MDA-MB-231 = experiment: as above
Summary of the method: as §2

MDA-MB-453 [9] = experiment: normalised viability (% of control), CellTiter-Blue; higher = more viable cells (about 100 = DMSO control); remark: listed apart in the source
Experimental: (§3)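 DSRT, CellTiter-Blue viability, 72 h incubation. Signal is normalised to DMSO and benzethonium chloride controls. Value is the normalised response at dose 6.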

HDQ-P1 [10] = experiment: as above; remark: listed apart in the source
Experimental: as §3

COc1cc2c(Oc3ccc4[nH]c(C)cc4c3F)ncnc2cc1OCCCN1CCCC1 [Cediranib]
Settings	drug sensitivity score
HCC1937 [3]	0
Hs578T [2]	0
MDA-MB-436 [1]	0

Settings	normalised viability [%]
BT-474, 1 nM	109
BT-474, 100 nM	101
BT-474, 1000 nM	91.1
BT-549, 1 nM	108
BT-549, 100 nM	104
BT-549, 1000 nM	70.8
CAL-51, 0.3 nM	90.5
CAL-51, 3 nM	88.7
CAL-51, 10 nM	88.6
CAL-85-1, 0.3 nM	104
CAL-85-1, 3 nM	96.5
CAL-85-1, 10 nM	99.8
CAL-120, 1 nM	117
CAL-120, 100 nM	110
CAL-120, 1000 nM	81.4
CAL-148, 0.3 nM	103
CAL-148, 3 nM	92.8
CAL-148, 10 nM	107
DU-4475, 0.3 nM	103
DU-4475, 3 nM	80.4
DU-4475, 10 nM	87.3
HCC1143, 1 nM	128
HCC1143, 100 nM	120
HCC1143, 1000 nM	112
HCC1599, 1 nM	101
HCC1599, 100 nM	114
HCC1599, 1000 nM	76.7
HCC1937 [8], 1 nM	66.2
HCC1937 [8], 100 nM	78.5
HCC1937 [8], 1000 nM	83.4
HDQ-P1 [6], 0.3 nM	84.8
HDQ-P1 [6], 3 nM	90.6
HDQ-P1 [6], 10 nM	100
HDQ-P1 [10], 30 nM	72.9
Hs578T [7], 1 nM	110
Hs578T [7], 100 nM	106
Hs578T [7], 1000 nM	92.2
MDA-MB-231, 1 nM	84.7
MDA-MB-231, 100 nM	83.7
MDA-MB-231, 1000 nM	92
MDA-MB-436 [5], 1 nM	85.6
MDA-MB-436 [5], 100 nM	92
MDA-MB-436 [5], 1000 nM	91.8
MDA-MB-453 [4], 0.3 nM	85.7
MDA-MB-453 [4], 3 nM	97
MDA-MB-453 [4], 10 nM	84.7
MDA-MB-453 [9], 30 nM	75.9
MDA-MB-468, 1 nM	92.5
MDA-MB-468, 100 nM	89.7
MDA-MB-468, 1000 nM	95.2
MFM-223, 1 nM	99.9
MFM-223, 100 nM	87
MFM-223, 1000 nM	47.2
SK-BR-3, 1 nM	100
SK-BR-3, 100 nM	95.7
SK-BR-3, 1000 nM	104

O=C(/C=C/c1cccnc1)NCCCCC1CCN(C(=O)c2ccccc2)CC1 [FK-866]
Settings	drug sensitivity score
HCC1937 [3]	7.6
Hs578T [2]	25.5
MDA-MB-436 [1]	22.3

Settings	normalised viability [%]
BT-474, 1 nM	112
BT-474, 100 nM	56.8
BT-474, 1000 nM	58.2
BT-549, 1 nM	95
BT-549, 100 nM	10.9
BT-549, 1000 nM	10.7
CAL-51, 0.3 nM	113
CAL-51, 3 nM	95.5
CAL-51, 10 nM	72.8
CAL-85-1, 0.3 nM	103
CAL-85-1, 3 nM	97.7
CAL-85-1, 10 nM	91.6
CAL-120, 1 nM	107
CAL-120, 100 nM	24.7
CAL-120, 1000 nM	23.3
CAL-148, 0.3 nM	96.4
CAL-148, 3 nM	94.5
CAL-148, 10 nM	91.4
DU-4475, 0.3 nM	104
DU-4475, 3 nM	77.2
DU-4475, 10 nM	86
HCC1143, 1 nM	85.6
HCC1143, 100 nM	24.4
HCC1143, 1000 nM	21.3
HCC1599, 1 nM	116
HCC1599, 100 nM	19.5
HCC1599, 1000 nM	17
HCC1937 [8], 1 nM	93.3
HCC1937 [8], 100 nM	64.2
HCC1937 [8], 1000 nM	42.5
HDQ-P1 [6], 0.3 nM	109
HDQ-P1 [6], 3 nM	112
HDQ-P1 [6], 10 nM	98
HDQ-P1 [10], 30 nM	64.3
Hs578T [7], 1 nM	99.9
Hs578T [7], 100 nM	15
Hs578T [7], 1000 nM	15.9
MDA-MB-231, 1 nM	106
MDA-MB-231, 100 nM	27.9
MDA-MB-231, 1000 nM	23.2
MDA-MB-436 [5], 1 nM	96.2
MDA-MB-436 [5], 100 nM	23.5
MDA-MB-436 [5], 1000 nM	17.7
MDA-MB-453 [4], 0.3 nM	111
MDA-MB-453 [4], 3 nM	31.7
MDA-MB-453 [4], 10 nM	22.3
MDA-MB-453 [9], 30 nM	23.8
MDA-MB-468, 1 nM	91.9
MDA-MB-468, 100 nM	1.9
MDA-MB-468, 1000 nM	1.73
MFM-223, 1 nM	108
MFM-223, 100 nM	21.2
MFM-223, 1000 nM	20.1
SK-BR-3, 1 nM	101
SK-BR-3, 100 nM	100
SK-BR-3, 1000 nM	111

CCCS(=O)(=O)Nc1ccc(F)c(C(=O)c2c[nH]c3ncc(-c4ccc(Cl)cc4)cc23)c1F [Vemurafenib]
Settings	drug sensitivity score
HCC1937 [3]	0.544
Hs578T [2]	1.04
MDA-MB-436 [1]	0

Settings	normalised viability [%]
BT-474, 10 nM	106
BT-474, 1000 nM	120
BT-474, 10000 nM	107
BT-549, 10 nM	96.4
BT-549, 1000 nM	105
BT-549, 10000 nM	57.3
CAL-51, 3 nM	102
CAL-51, 30 nM	95.4
CAL-51, 100 nM	92.9
CAL-85-1, 3 nM	92.8
CAL-85-1, 30 nM	84.6
CAL-85-1, 100 nM	87.2
CAL-120, 10 nM	92.6
CAL-120, 1000 nM	91.8
CAL-120, 10000 nM	71.7
CAL-148, 3 nM	95.2
CAL-148, 30 nM	97.3
CAL-148, 100 nM	98.3
DU-4475, 3 nM	94.5
DU-4475, 30 nM	85.1
DU-4475, 100 nM	68.2
HCC1143, 10 nM	95.8
HCC1143, 1000 nM	102
HCC1143, 10000 nM	87.4
HCC1599, 10 nM	77.6
HCC1599, 1000 nM	87.6
HCC1599, 10000 nM	90.9
HCC1937 [8], 10 nM	109
HCC1937 [8], 1000 nM	101
HCC1937 [8], 10000 nM	67.7
HDQ-P1 [6], 3 nM	92.9
HDQ-P1 [6], 30 nM	105
HDQ-P1 [6], 100 nM	106
HDQ-P1 [10], 300 nM	74.4
Hs578T [7], 10 nM	112
Hs578T [7], 1000 nM	129
Hs578T [7], 10000 nM	45.9
MDA-MB-231, 10 nM	91.5
MDA-MB-231, 1000 nM	92.4
MDA-MB-231, 10000 nM	100
MDA-MB-436 [5], 10 nM	104
MDA-MB-436 [5], 1000 nM	97.3
MDA-MB-436 [5], 10000 nM	78.1
MDA-MB-453 [4], 3 nM	96.5
MDA-MB-453 [4], 30 nM	93.1
MDA-MB-453 [4], 100 nM	80.1
MDA-MB-453 [9], 300 nM	88.7
MDA-MB-468, 10 nM	113
MDA-MB-468, 1000 nM	107
MDA-MB-468, 10000 nM	63.5
MFM-223, 10 nM	87.9
MFM-223, 1000 nM	95.4
MFM-223, 10000 nM	85.6
SK-BR-3, 10 nM	88.5
SK-BR-3, 1000 nM	93.8
SK-BR-3, 10000 nM	95

CCc1cncnc1N1CCN(Cc2nc3ccc(C(F)(F)F)cc3[nH]2)CC1
Settings	drug sensitivity score
HCC1937 [3]	0
Hs578T [2]	0
MDA-MB-436 [1]	0

Settings	normalised viability [%]
BT-474, 10 nM	115
BT-474, 1000 nM	118
BT-474, 10000 nM	83.7
BT-549, 10 nM	78.4
BT-549, 1000 nM	102
BT-549, 10000 nM	59.9
CAL-51, 3 nM	94.3
CAL-51, 30 nM	90
CAL-51, 100 nM	91.5
CAL-85-1, 3 nM	102
CAL-85-1, 30 nM	97.4
CAL-85-1, 100 nM	101
CAL-120, 10 nM	104
CAL-120, 1000 nM	135
CAL-120, 10000 nM	132
CAL-148, 3 nM	119
CAL-148, 30 nM	95.8
CAL-148, 100 nM	114
DU-4475, 3 nM	103
DU-4475, 30 nM	91.6
DU-4475, 100 nM	107
HCC1143, 10 nM	103
HCC1143, 1000 nM	106
HCC1143, 10000 nM	109
HCC1599, 10 nM	77.2
HCC1599, 1000 nM	83
HCC1599, 10000 nM	90.2
HCC1937 [8], 10 nM	108
HCC1937 [8], 1000 nM	107
HCC1937 [8], 10000 nM	86.8
HDQ-P1 [6], 3 nM	116
HDQ-P1 [6], 30 nM	108
HDQ-P1 [6], 100 nM	108
HDQ-P1 [10], 300 nM	105
Hs578T [7], 10 nM	95.4
Hs578T [7], 1000 nM	122
Hs578T [7], 10000 nM	88.8
MDA-MB-231, 10 nM	96.9
MDA-MB-231, 1000 nM	98.2
MDA-MB-231, 10000 nM	106
MDA-MB-436 [5], 10 nM	107
MDA-MB-436 [5], 1000 nM	106
MDA-MB-436 [5], 10000 nM	91.7
MDA-MB-453 [4], 3 nM	101
MDA-MB-453 [4], 30 nM	110
MDA-MB-453 [4], 100 nM	103
MDA-MB-453 [9], 300 nM	101
MDA-MB-468, 10 nM	107
MDA-MB-468, 1000 nM	108
MDA-MB-468, 10000 nM	103
MFM-223, 10 nM	103
MFM-223, 1000 nM	122
MFM-223, 10000 nM	82.7
SK-BR-3, 10 nM	105
SK-BR-3, 1000 nM	104
SK-BR-3, 10000 nM	117
